Measured values as given in patent publication US10183936B2, “Hepatitis B core protein allosteric modulators” (priority 2014, dated 2019).

Legend:
[1] = tested on: AD38 cells; assay: Viability of AD38 cells (Promega CellTiter-Glo) at the end of compound treatment; format: cell-based; conditions: 10 μM compound, 6 days, luminescence normalized against DMSO control wells (controls being 100%)
Procedure, shortened: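 AD38 cells seeded at 50,000/well received compound from a 10× solution in 10% DMSO and were incubated 6 days at 37° C. Viability was then read by CellTiter-Glo luminescence in tetracycline-free medium with 2% FBS and 1% DMSO, normalized to DMSO control wells (100%) and reported as percent viability.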

[2] = tested on: HBV viral production in AD38 cells; assay: Viral load production in AD38 cells by quantitative PCR of the HBV core sequence in supernatant; format: cell-based; conditions: 10 μM compound, 6 days at 37° C., viral load in supernatant compared against DMSO control wells; for activity at 10 µM: Hepatitis B virus, 144 h, read-out: AD38 Viral Load (CpAM/DMSO %) at 10 μM
Procedure, shortened: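 AD38 cells seeded at 50,000/well, treated 6 days at 37° C with compound added as 10× solution in 10% DMSO. HBV core sequence in clarified supernatant quantified by TaqMan qPCR against known standards; viral load compared with DMSO control wells.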

Row | Compound | AD38 Viability Normalized Result (CPAM/DMSO %) at 10 μM [1] | activity at 10 µM [2] | AD38 Viral Load (CpAM/DMSO %) at 10 μM [2]
1 | Cc1ccc2c(c1)C(=O)Nc1cc(C(=O)NCCC3CCCCC3)ccc1S2 [Compound 1274] | 88% | 11% | 
2 | Cc1cc2c(cc1C(=O)NCCC1CCCCC1)NC(=O)c1ccccc1S2 [Compound 1275] | 93% | 3% | 
3 | NC(=O)c1ccc2c(c1)Sc1ccc(C(=O)NCCC3CCCCC3)cc1NC2=O [Compound 1276] | 89% | 24% | 
4 | CN(C)C(=O)c1ccc2c(c1)Sc1ccc(C(=O)NCCC3CCCCC3)cc1NC2=O [Compound 1278, N-(2-cyclohexylethyl)-N^3,N^3-dimethyl-11-oxo-10, 11-dihydrodibenzo [b,f] [1,4] thiazepine-3,8-dicarboxamide] | 88% |  | 3%
5 | NC(=O)c1ccc2c(c1)Sc1ccc(C(=O)NCCc3ccccc3)cc1NC2=O [Compound 1279] | 84% | 55% | 
6 | CNC(=O)c1ccc2c(c1)Sc1ccc(C(=O)NCCc3ccccc3)cc1NC2=O [Compound 1280, N^3-methyl-11-oxo-N^8-phenethyl-10, 11-dihydrodibenzo [b,f] [1,4] thiazepine-3,8-dicarboxamide] | 94% | 74% | 
7 | CN(C)C(=O)c1ccc2c(c1)Sc1ccc(C(=O)NCCc3ccccc3)cc1NC2=O [Compound 1281, N^3,N^3-dimethyl-11-oxo-N^8-phenethyl-10, 11-dihydrodibenzo [b,f] [1,4] thiazepine-3,8-dicarboxamide] | 86% | 29% | 
8 | O=C(O)c1ccc2c(c1)Sc1ccc(C(=O)NCCC3CCCCC3)cc1NC2=O [Compound 1282, 8-((2-cyclohexylethyl)carbamoyl)-11-oxo-10, 11-dihydrodibenzo [b, f] [1,4] thiazepine-3-carboxylic acid] | 105% | 102% | 
9 | CCc1cccc(CNC(=O)c2ccc3c(c2)NC(=O)c2ccccc2S3)c1 [Compound 1283] | 97% | 1% | 
10 | O=C(NCCC1CCCCC1)c1ccc2c(c1)NC(=O)c1cc(F)ccc1S2 [Compound 1285] | 108% | 3% | 
11 | Cc1cc(C(=O)NCCC2CCCCC2)cc2c1Sc1ccccc1C(=O)N2 [Compound 1286] | 114% | 36% | 
12 | COc1cc2c(cc1C(=O)NCCC1CCCCC1)NC(=O)c1ccccc1S2 [Compound 1287] | 96% | 11% | 
13 | O=C1Nc2cc(S(=O)(=O)NCCc3ccccc3)ccc2Sc2ccccc21 [Compound 1289, 11-oxo-N-phenethyl-10, 11-dihydrodibenzo [b,f] [1,4] thiazepine-8-sulfonamide] | 96% | 40% | 
14 | O=C(NCCc1cncnc1)c1ccc2c(c1)NC(=O)c1ccccc1S2 [Compound 1290] | 94% | 33% | 
15 | O=C(NCCc1ccc(-c2cnn[nH]2)cc1)c1ccc2c(c1)NC(=O)c1ccccc1S2 [Compound 1291] | 102% | 1% | 
16 | O=C(NCc1cncnc1)c1ccc2c(c1)NC(=O)c1cc(F)ccc1S2 [Compound 1308] | 99% | 1% | 
17 | O=C(NCc1cncs1)c1ccc2c(c1)NC(=O)c1cc(F)ccc1S2 [Compound 1309] | 107% | 1% | 
18 | O=C(NCCc1ccccn1)c1ccc2c(c1)NC(=O)c1cc(F)ccc1S2 [Compound 1310] | 89% | 1% | 
19 | O=C(NCc1cnco1)c1ccc2c(c1)NC(=O)c1cc(F)ccc1S2 [Compound 1311] | 95% | 8% | 
20 | O=C(NCCc1cncnc1)c1ccc2c(c1)NC(=O)c1cc(F)ccc1S2 [Compound 1312] | 83% | 5% | 
21 | CC(C)(C)c1ccc([C@@H](CO)NC(=O)c2ccc3c(c2)NC(=O)c2cc(F)ccc2S3)cc1 [Compound 1313] | 108% | 17% | 
22 | O=C(NCc1ccc(-c2cncnc2)cc1)c1ccc2c(c1)NC(=O)c1cc(F)ccc1S2 [Compound 1314] | 101% | 69% | 
23 | O=C(NCc1cnc(-c2ccccc2)nc1)c1ccc2c(c1)NC(=O)c1cc(F)ccc1S2 [Compound 1315] | 103% | 4% | 
24 | O=C(Nc1ccc(F)cc1)c1ccc2c(c1)NC(=O)c1cc(F)ccc1S2 [Compound 1316] | 89% | 32% | 
25 | O=C(Nc1cccc(F)c1)c1ccc2c(c1)NC(=O)c1cc(F)ccc1S2 [Compound 1317] | 95% | 50% | 

Row | Compound | AD38 Viability Normalized Result (CPAM/DMSO %) at 10 μM [1] | activity at 10 µM [2] | AD38 Viral Load (CpAM/DMSO %) at 10 μM [2]
26 | O=C(Nc1ccc(F)cc1F)c1ccc2c(c1)NC(=O)c1cc(F)ccc1S2 [Compound 1318] | 70% | 14% | 
27 | O=C(Nc1ccccc1)c1ccc2c(c1)NC(=O)c1cc(F)ccc1S2 [Compound 1319] | 83% | 16% | 
28 | O=C(NCCc1ccc(-c2cncnc2)cc1)c1ccc2c(c1)NC(=O)c1cc(F)ccc1S2 [Compound 1320] | 93% | 43% | 
29 | O=C(Nc1ccc(Cl)cc1)c1ccc2c(c1)NC(=O)c1cc(F)ccc1S2 [Compound 1321] | 74% | 15% | 
30 | O=C(Nc1ccccc1F)c1ccc2c(c1)NC(=O)c1cc(F)ccc1S2 [Compound 1322] | 94% | 28% | 
31 | O=C(Nc1ccc(F)cc1Cl)c1ccc2c(c1)NC(=O)c1cc(F)ccc1S2 [Compound 1323] | 60% | 96% | 
32 | O=C(Nc1cc(F)c(F)c(F)c1)c1ccc2c(c1)NC(=O)c1cc(F)ccc1S2 [Compound 1324] | 24% | 10% | 
33 | O=C(Nc1ccc2ncsc2c1)c1ccc2c(c1)NC(=O)c1cc(F)ccc1S2 [Compound 1325] | 90% | 26% | 
34 | O=C(Nc1ccc(-c2ccccc2)cc1)c1ccc2c(c1)NC(=O)c1cc(F)ccc1S2 [Compound 1326] | 95% | 23% | 
35 | O=C(Nc1cncnc1)c1ccc2c(c1)NC(=O)c1cc(F)ccc1S2 [Compound 1328] | 105% | 54% | 
36 | O=C(Nc1nccs1)c1ccc2c(c1)NC(=O)c1cc(F)ccc1S2 [Compound 1329] | 109% | 62% | 
37 | O=C(Nc1ccncc1)c1ccc2c(c1)NC(=O)c1cc(F)ccc1S2 [Compound 1330] | 109% | 41% | 
38 | O=C(Nc1ccc2ncoc2c1)c1ccc2c(c1)NC(=O)c1cc(F)ccc1S2 [Compound 1331] | 88% | 43% | 
39 | O=C(Nc1nc2ccc(F)cc2s1)c1ccc2c(c1)NC(=O)c1cc(F)ccc1S2 [Compound 1332] | 103% | 70% | 
40 | O=C(Nc1cccc(-c2ccccc2)c1)c1ccc2c(c1)NC(=O)c1cc(F)ccc1S2 [Compound 1333] | 73% | 20% | 
41 | O=C(Nc1ccc(Cl)cc1F)c1ccc2c(c1)NC(=O)c1cc(F)ccc1S2 [Compound 1334] | 83% | 33% | 
42 | O=C(Nc1cncs1)c1ccc2c(c1)NC(=O)c1cc(F)ccc1S2 [Compound 1335] | 104% | 87% | 
43 | O=C(Nc1ccc(F)cn1)c1ccc2c(c1)NC(=O)c1cc(F)ccc1S2 [Compound 1336] | 90% | 70% | 
44 | O=C(Nc1cncc(F)c1)c1ccc2c(c1)NC(=O)c1cc(F)ccc1S2 [Compound 1337] | 91% | 77% | 
45 | O=C(Nc1ccc(Cl)cn1)c1ccc2c(c1)NC(=O)c1cc(F)ccc1S2 [Compound 1338] | 118% | 70% | 
46 | O=C(Nc1nc2ccccc2s1)c1ccc2c(c1)NC(=O)c1cc(F)ccc1S2 [Compound 1339] | 70% | 113% | 
47 | O=C(Nc1nc2ccc(Cl)cc2s1)c1ccc2c(c1)NC(=O)c1cc(F)ccc1S2 [Compound 1340] | 116% | 64% | 
48 | COC(=O)C(Cc1cncnc1)NC(=O)c1ccc2c(c1)NC(=O)c1cc(F)ccc1S2 (centres unmarked) [Compound 1342, Methyl 2-(2-fluoro-11-oxo-10, 11-dihydrodibenzo [b,f] [1,4]thiazepine-8-carboxamido)-3-(pyrimidin-5-yl) propanoate] | 95% |  | 113%
49 | O=C(NCCc1cnc(-c2ccccc2)nc1)c1ccc2c(c1)NC(=O)c1cc(F)ccc1S2 [Compound 1343] | 91% | 8% | 
